Test results taken from PubChem BioAssay (NCI).
“And” between values parts separate entries of the source, which are not always exact repeats. Identical values can stand only once.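 Growth conditions: 96-well plates. Treatment: test compound, 48 hours, 5 concentrations. Analysis: linear interpolation between bracketing concentrations; unreached endpoints set to highest concentration. The concentration for 50% growth inhibition is given as GI50. TGI denotes the concentration required for complete inhibition of growth.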

Key:
Assay in all cases: NCI tumour cell line growth inhibition, 48 h
RPMI-8226 leukemia = tested on: RPMI-8226 leukemia
SNB-19 CNS = tested on: SNB-19 CNS
NCI-H23 lung = tested on: NCI-H23 lung
EKVX NSCLC = tested on: EKVX NSCLC
RXF 393 renal = tested on: RXF 393 renal
HCC-2998 colon = tested on: HCC-2998 colon
CCRF-CEM leukemia = tested on: CCRF-CEM leukemia
SK-MEL-2 melanoma = tested on: SK-MEL-2 melanoma
UACC-62 melanoma = tested on: UACC-62 melanoma
OVCAR-8 ovarian = tested on: OVCAR-8 ovarian
SW-620 colon = tested on: SW-620 colon
KM12 colon = tested on: KM12 colon
SF-295 CNS = tested on: SF-295 CNS
HOP-62 NSCLC = tested on: HOP-62 NSCLC
U251 CNS = tested on: U251 CNS
OVCAR-3 ovarian = tested on: OVCAR-3 ovarian
HCT-116 colon = tested on: HCT-116 colon

SMILES	TGI (RPMI-8226 leukemia)	TGI (SNB-19 CNS) [µM]	TGI (NCI-H23 lung)	TGI (EKVX NSCLC)	TGI (RXF 393 renal)	TGI (HCC-2998 colon)	TGI (CCRF-CEM leukemia)	TGI (SK-MEL-2 melanoma)	TGI (UACC-62 melanoma)	TGI (OVCAR-8 ovarian)	TGI (SW-620 colon)	TGI (KM12 colon)	TGI (SF-295 CNS) [µM]	TGI (HOP-62 NSCLC)	TGI (U251 CNS)	TGI (OVCAR-3 ovarian)	TGI (HCT-116 colon)	GI50 (EKVX NSCLC) [µM]	GI50 (CCRF-CEM leukemia)	GI50 (SW-620 colon)
Cc1[nH]nc(N)c1C(N)=O	> 100 µM	> 100	> 100 µM	> 100 µM	56.1 µM	> 100 µM	> 100 µM	> 100 µM	> 100 µM	> 100 µM	> 100 µM	> 100 µM	> 100							
CC(=O)NC(CCC(=O)C=[N+]=N)C(=O)O (stereo not given)	> 100 µM	> 100	> 100 µM	> 100 µM	> 100 µM	> 100 µM	> 100 µM	> 100 µM	> 100 µM	> 100 µM	> 100 µM	> 100 µM	> 100	> 100 µM	> 100 µM	> 100 µM	> 100 µM			
OC1CCOc2ccccc21 (stereo not given)	> 100 µM	> 100	> 100 µM	> 100 µM	> 100 µM	> 100 µM	> 100 µM	> 100 µM	> 100 µM	> 100 µM	> 100 µM	> 100 µM		> 100 µM	> 100 µM	> 100 µM	> 100 µM			
CCCC(=O)NC1CCc2cc(OC)c(OC)c(OC)c2-c2ccc(OC)c(=O)cc21 (stereo not given)	> 100 µM	> 100		> 100 µM	44.7 µM		> 100 µM	> 100 µM	> 100 µM	> 100 µM	> 100 µM			> 100 µM	> 100 µM	0.211 µM	> 100 µM	> 100		
CCOC(=O)c1c(Cl)nc2ccccc2c1N=[N+]=[N-]	> 100 µM	> 100	> 100 µM	> 100 µM	> 100 µM	> 100 µM	> 100 µM	71.5 µM			35.1 µM	31.5 µM	> 100	> 100 µM	62.4 µM	39.7 µM	43 µM			
S=C1CC(c2ccccc2)Sc2ccccc2N1 (stereo not given)	> 100 µM	> 100	> 100 µM	> 100 µM	75.8 µM		> 100 µM		> 100 µM	> 100 µM		> 100 µM	> 100	60.1 µM	> 100 µM	> 100 µM	> 100 µM			
O=S(=O)(O)c1ccc(N=Nc2c(O)ccc3cc(Br)ccc23)cc1	> 100 µM	> 100	> 100 µM	> 100 µM	> 100 µM		> 100 µM	> 100 µM	> 100 µM	> 100 µM	> 100 µM	> 100 µM	> 100	> 100 µM	> 100 µM	> 100 µM	> 100 µM			
CC1CCC2(C(=O)O)CCC3(C)C(=CCC4C5(C)CCC(O)C(C)(C)C5CCC43C)C2C1C (stereo not given)	24.3 µM and 31.5 µM	17.9	24.4 µM and 34.3 µM	23.2 µM and 28.6 µM	16.4 µM and 38.3 µM	21.8 µM and 23 µM	27.9 µM and > 100 µM	19 µM and 30.2 µM	18.8 µM and 44 µM	21 µM and 35.2 µM	16.9 µM and > 100 µM	21 µM and 20.9 µM	10.2	21.8 µM and 39.1 µM	19.8 µM and > 100 µM	18.4 µM and 26.8 µM	17.9 µM and > 100 µM		3.59 µM and 16.6 µM	5.07 µM and 46.9 µM
CNC(=O)SCC(N)C(=O)O (stereo not given)	> 100 µM	> 100	> 100 µM	> 100 µM	> 100 µM	> 100 µM	> 100 µM	> 100 µM	> 100 µM	> 100 µM	> 100 µM	> 100 µM	> 100	> 100 µM	> 100 µM	> 100 µM	> 100 µM			
CC1CC[C@@]2(OC1)OC1CC3C4CCC5C[C@@H](OC6OC(CO)C(OC7OC(CO)C(O)C(OC8OC(CO)C(O)C(OC9OC(CO)C(O)C(O)C9O)C8O)C7OC7OC(CO)C(O)C(O)C7O)C(O)C6O)[C@H](O)C[C@]5(C)C4CC[C@]3(C)C1[C@@H]2C (stereo not given in full)		> 80.5	> 80.5 µM	> 80.5 µM	> 80.5 µM	> 80.5 µM	> 80.5 µM		> 80.5 µM	> 80.5 µM	> 80.5 µM	> 80.5 µM	> 80.5	> 80.5 µM	> 80.5 µM	> 80.5 µM	> 80.5 µM			
C/C=C/C1=CC(=O)C(O)C1O (stereo not given)	102 µM	124	> 77.9 µM	148 µM	44 µM	82.5 µM	103 µM	133 µM	88.6 µM	79.9 µM	99.3 µM	39 µM	118	126 µM	129 µM	67.7 µM	96 µM			
COC1C=COC2(C)Oc3c(C)c(O)c4c(O)c(c(/C=N/N5CCN(N)CC5)c(O)c4c3C2=O)NC(=O)C(C)=CC=CC(C)C(O)C(C)C(O)C(C)C(OC(C)=O)C1C (stereo not given)	88.8 µM	> 100	> 100 µM	> 100 µM	> 100 µM	> 100 µM	47.9 µM	> 100 µM	> 100 µM	> 100 µM	> 100 µM	> 100 µM	> 100	> 100 µM	> 100 µM		80.7 µM			
CC1(C)Cc2c(C#N)c(N)c3c(c2CO1)C(=O)OC3=O	> 100 µM	> 100	> 100 µM	> 100 µM	> 100 µM	> 100 µM	> 100 µM	> 100 µM	> 100 µM	> 100 µM	> 100 µM	> 100 µM		> 100 µM	> 100 µM	> 100 µM	> 100 µM			
CCC(=O)c1ccc2[nH]c3c(C)c4c(=O)cc(C)[nH]c4c(C)c3c2c1		> 100	> 100 µM	> 100 µM	> 100 µM	> 100 µM	> 100 µM	> 100 µM		> 100 µM	> 100 µM	> 100 µM	> 100	> 100 µM	> 100 µM		> 100 µM			
CC(=O)NC(c1nc2cc(C)c(C)cc2[nH]1)c1nc2cc(C)c(C)cc2[nH]1	46.4 µM	> 100	> 100 µM	84.8 µM	84.8 µM	34.6 µM	37 µM	> 100 µM	> 100 µM	47.5 µM	> 100 µM	34.2 µM	49.1		57.9 µM	42.2 µM	53.7 µM			
